# Reference: patent US6455466B1, “Compositions and methods for preventing leaf yellowing in plants” (The Regents of the University of California, priority 2000, dated 2002)
# Legend:
# [1] = test system: cut flowers of Alstroemeria (cv. diamond); assay: Leaf chlorophyll content / leaf yellowing of cut Alstroemeria flowers held in treatment solution; assay type: in vivo
# Description: The model system used in the experiments was cut stems of Alstroemeria an important cut flower whose flowers normally long outlast the relatively short-lived leaves.
# In a preliminary experiment with cut flowers of Alstroemeria (cv. diamond), the flowers were placed in deionized water (DI) or a solution containing 1 μM TDZ. The chlorophyll content of the leaves was measured as described by Lichenhaler, Methods in Enzymology […] (1987). […] By 20 days, there was no detectable chlorophyll in the leaves of the control flowers (see, FIG. 1).
# [2] = test system: plants; conditions: cited from earlier work
smiles,measurement,setting,value
"O=C(Nc1ccccc1)Nc1cnns1 [TDZ, 1-phenyl-3-(1,2,3-thiadiazol-5-yl)urea]",chlorophyll content of the leaves versus flowers held in deionized water,"[1]; 1 μM TDZ solution, by 10 days",significantly higher than the concentration in leaves of flowers held in DI
same,effectiveness of 24 hour pulse pre-treatment,[1]; 24 hour pulse pre-treatment with 10 μM TDZ compared with continuous 1 μM TDZ,as effective as continuous treatment with 1 μM TDZ
same,chlorophyll content of the leaves,"[1]; cut Alstroemeria flowers placed in solution containing 1 μM TDZ, throughout the experiment (FIG. 1)",remained high throughout the experiment
same,effectiveness compared with BAP or GA3,"[1]; subsequent experiments, cut Alstroemeria flowers",much more effective than BAP or GA3
same,metabolism by plants,[2],plants do not metabolize it
